Laboratory results published in patent US20180237745A1, “METHOD FOR CONTROLLING DIFFERENTIATION OF STEM CELLS” (GUANGZHOU INSTITUTES OF BIOMEDICINE AND HEALTH, CHINESE …, priority 2015, published 2018).

How the values were obtained:
[1] = test system: human H1 ES cells
Experimental: Undifferentiated human H1 ES cells were maintained in monolayer culture on Matrigel (BD Biosciences, 354277) in mTeSR1 medium (Stemcell Technologies, 05850) at 37° C. with 5% CO2. Cells were manually passaged at 1:4 to 1:6 split ratios every 3 to 5 days. For hepatic differentiation, we established a serum-free protocol based on previously described protocols with minor modifications^8, 9. Briefly, H1 cells were cultured for 3 days in RPMI/B27 medium (Insulin minus, Gibco, A18956-01) supplemented with 100 ng/ml Activin A (Peprotech, A120-14E), followed by 4 days with 20 ng/ml BMP2 (Peprotech, 120-02) and 30 ng/ml FGF-4 (Peprotech, 100-31) in RPMI/B27 (complete with Insulin, Gibco, 17504-044) medium, then 6 days with 20 ng/ml HGF (Peprotech, 100-39) and KGF (Peprotech, 100-19) in RPMI/B27 (complete with Insulin), then 8 days with 20 ng/ml Oncostatin-M (R&D Systems, 295-OM/CF) in Hepatocyte Culture Media (Lonza, cc-3198) supplemented with SingleQuots (without EGF). Immunofluorescence staining.
Single cell qPCR was performed using a Fluidigm C1 and BioMark HD as described by the manufacturer. Briefly, a cell suspension of a concentration of 166˜250 K/mL was loaded into a 10-17 μm C1™ Single-Cell Auto Prep IFC chamber (Fluidigm, PN100-5479), and cell capture was performed on the Fluidigm C1™ System. Both the empty wells and doublet-occupied wells were excluded from further analysis. Upon capture, reverse transcription and cDNA pre-amplification were performed using the Ambion Single Cell-to-CT Kit (Life Technologies, PN 4458237) and C1™ Single-Cell Auto Prep Module 2 Kit (Fluidigm, PN100-5519). The pre-amplified products were diluted 10-fold prior to analysis with TaqMan® Gene Expression Master Mix (Life Technologies, 4369016) and inventoried TaqMan® Gene Expression assays (20×, Applied Biosystems) in 96.96 dynamic Arrays™ on a BioMark System (Fluidigm). Inventoried TaqMan primers were used for single-cell qPCR. Relative expression was calculated as described in Buganim et al., 2012^22 except that a Ct value of 25 was used for low expressed genes. Relational network plots (mdsquish) were implemented as part of glbase^21 and will be described in detail elsewhere. Briefly, the normalized Euclidean distance between all cells was measured for singular value decomposed principal components 2, 3, 4 and 5. A network was then constructed using a threshold of 0.92 for weak links (dotted lines) and 0.99 for strong links (solid lines) with a maximum of the 50 best scoring edges per node, the network was then laid out using graphviz ‘neato’ layout. Node sizes are 2^[relative expression].
Culturing condition during differentiation is as follows. Nearly 50% confluent undifferentiated human H1 ES cells obtained from ATCC were passaged by Accutase 24 hr after seeding, cells were almost 90% confluent at 37° C. with 5% CO2. Then H1 cells were cultured for 3 days in RPMI/B27 medium (Insulin minus) supplemented with 100 ng/ml Activin A in the presence of 2 μM Repsox or not.
TGFβ-signaling inhibitor RepSox was added with a final concentration of 2 μM at day 0 from the start of differentiation of hESCs.
Expression of various markers of definite layer type cells, i.e., SOX1/PAX6 (ectoderm markers), GATA2/BMP4 (mesoderm markers), and SOX17/FOXA2 (endoderm markers) were tested during differentiation to evaluate the differentiated cells.

[2] = test system: human H1 ES cells; experiment: Bulk real-time qRT-PCR of marker genes in Activin A induced hESCs; format: cell-based
Experimental: Immunofluorescence staining.
Total RNA was extracted using the Trizol reagent (MRC, TR1187) and 2 μg of total RNA was reverse-transcribed using the ReverTraAce Kit (TOYOBO, 34520B1). The product (cDNA) was properly diluted and used as PCR template. PCR reactions were performed with the SYBR®Premix Ex Taq™ Kit (TAKARA, RR420A) on the CFX96 Touch™ Real-Time PCR Detection System (Bio-Rad). GAPDH was used as the internal control. Three to four biological replicates were performed for each assay and data represents mean±SD.
Culturing condition during differentiation is as follows.

[3] = test system: H1-derived cells; settings: day 3 cells induced by Activin A in the presence of RepSox, compared to DE cells
Source text: Scratch assay was used to determine the migration activity of H1-derived cells. Briefly, cells in a confluent monolayer were scratched with a needle to form a cell-free zone into which cells at the edges of the wound can migrate. The denuded area was imaged to measure the boundary of the wound at pre-migration. Images of cell movement were captured at regular intervals within a 24-48 hr period for data analysis.

[4] = test system: TGFβ; experiment: ELISA of TGFβ protein in Activin A stimulated H1 cell culture media; format: cell-based, human; settings: day 3 cells, Activin A (FIG. 4A)
Experimental: The protein level of TGFβ in the Activin A stimulated H1 cell culture media was determined with an ELISA Kit (R&D Systems, DB100B) as described by the manufacturer.

Molecule	endoderm marker expression ([1]; Example 1: 100 ng/ml Activin A, 2 μM RepSox, 3 days (FIG. 4B-E))	ectodermal markers SOX1 and PAX6 ([1]; RepSox treated cells, day 3 (FIG. 4C))	EMT and formation of DE ([1]; day 3, Activin A treated hESCs, RepSox added, single cell-qPCR (FIG. 4C))	expression of POU5F1 and NANOG ([1]; day 3 Activin A cells treated with RepSox (FIG. 4C))	expression of CDH1 and SOX2 ([1]; day 3 Activin A cells treated with RepSox, compared with hESCs (FIG. 4C))	induction of SOX17 expression ([1]; day 3 Activin A-treated cells (FIG. 4C))	expression of CDH1 ([2]; qRT-PCR (FIG. 4D))	expression of CDH2, SNAI1, SNAI2, ZEB1, KLF8 and VIM ([2]; qRT-PCR (FIG. 4D))	expression of mesendoderm/endoderm markers GSC, EOMES, MIXL1, SOX17, FOXA2, GATA4, GATA6, HHEX and LGR5 ([2]; qRT-PCR (FIG. 4D))	other lineage markers PAX6, GATA2, BMP4 and GATA3 ([2]; qRT-PCR (FIG. 4D))	migration ability of day 3 cells [3]	TGFB1 gene expression ([2]; qRT-PCR, day 3 (FIG. 6))	TGFβ protein in the culture media [4]
Cc1cccc(-c2[nH]ncc2-c2ccc3ncccc3n2)n1 [RepSox]	no endoderm marker is expressed	slightly induced	not only blocked the EMT but also the formation of DE	continued to express POU5F1 and NANOG	maintained the expression of CDH1 and SOX2 at the same level as hESCs	blocked its induction completely	maintaining the expression of CDH1	blocked the expression	blocked the expression of mesendoderm/endoderm markers	mildly up-regulated	less motile		
Activin A (protein, UniProt P08476 311-426, looked up, Inhibin beta A chain, growth factor (Peprotech) used to induce definitive endoderm differentiation of hESCs) Inhibin beta A chain: GLECDGKVNICCKKQFFVSFKDIGWNDWIIAPSGYHANYCEGECPSHIAGTSGSSLSFHSTVINHYRMRGHSPFANLKSCCVPTKLRPMSMLYYDDGQNIIKKDIQNMIVEECGCS												robust activation	1.5 ng/mL
